Here are results for three molecules from US20240325530A1, “COMBINATION THERAPIES” (Versanis Bio, Inc., priority 2021, published 2024).

Like-named read-outs stand apart in the source and are kept apart here.

Series [1] can be described thus: Obese mouse model (60% fat diet), initial study: food intake, body composition by MRI, physical activity. Set-up: species or system C57B1/6J mice. The settings on record: in vivo. As to the method:
C57B1/6J mice at 5-6 weeks of age were fed a 60% fat diet for 14 weeks and reached an average body weight of 49 grams at the start of dosing, as an obese mouse model. Employing a modified 3×3 factorial design, groups of mice (n=8 per group) received a murinized version of bimagrumab, CDD866, at 0.3 mg/kg or 20 mg/kg intraperitoneally (i.p.) weekly and/or semaglutide at 5 μg/kg or 40 μg/kg subcutaneously (s.c.) daily. The high fat diet was continued through the treatment period, and food intake and body weight were monitored twice weekly. Clinical observations, body composition by MRI, and physical activity, were assessed once weekly.

A short description of series [2]: Pharmacokinetics of semaglutide and CDD866 alone and combined in DIO mice. The settings on record: analyte semaglutide, mean plasma; for MRT inf / MRT last: mouse; for MRT inf: read-out: MRT0-inf; for MRT last: read-out: MRT0-last. The format is in vivo. As to the method: Dedicated cohorts of diet induced obesity (DIO) mice were used. Blood sampling was performed at 5 time points, with 3 mice per time point.

Series [3] is described as follows: DIO mice: CDD866 combined with semaglutide, liraglutide or tirzepatide (body weight, fat, lean mass, food intake, open field). The class given is in vivo. The conditions noted are these: Day 22, DIO mice; CDD866 20 mg/kg, semaglutide 40 μg/kg, tirzepatide 45/22.5 μg/kg (Table 4). As to the method: DIO mice received a murinized version of bimagrumab, CDD866, at 20 mg/kg intraperitoneally (i.p.) weekly in combination with semaglutide (40 μg/kg once daily), liraglutide (40 μg/kg twice daily), or tirzepatide at 45 μg/kg once daily and after day 11, 22.5 μg/kg once daily) subcutaneously (s.c.). The GLP-1 agonists in this study were not dose escalated.

For series [4] the following is noted: overweight and obese patients; cited from earlier work.
The mark [5] stands for this setting: group CDD866-20 mpk + Semaglutide-40 ug/kg.

For `CC[C@H](C)[C@H](NC(=O)[C@H](Cc1ccccc1)NC(=O)[C@H](CCC(=O)O)NC(=O)[C@H](CCCCNC(=O)COCCOCCNC(=O)COCCOCCNC(=O)CC[C@H](NC(=O)CCCCCCCCCCCCCCCCC(=O)O)C(=O)O)NC(=O)[C@H](C)NC(=O)[C@H](C)NC(=O)[C@H](CCC(N)=O)NC(=O)CNC(=O)[C@H](CCC(=O)O)NC(=O)[C@H](CC(C)C)NC(=O)[C@H](Cc1ccc(O)cc1)NC(=O)[C@H](CO)NC(=O)[C@H](CO)NC(=O)[C@@H](NC(=O)[C@H](CC(=O)O)NC(=O)[C@H](CO)NC(=O)[C@@H](NC(=O)[C@H](Cc1ccccc1)NC(=O)[C@@H](NC(=O)CNC(=O)[C@H](CCC(=O)O)NC(=O)C(C)(C)NC(=O)[C@@H](N)Cc1cnc[nH]1)[C@@H](C)O)[C@@H](C)O)C(C)C)C(=O)N[C@@H](C)C(=O)N[C@@H](Cc1c[nH]c2ccccc12)C(=O)N[C@@H](CC(C)C)C(=O)N[C@H](C(=O)N[C@@H](CCCNC(=N)N)C(=O)NCC(=O)N[C@@H](CCCNC(=N)N)C(=O)NCC(=O)O)C(C)C` [Semaglutide, semaglutide], the clinical observations result in series [1] was “no clinical observations of concern”. Further, the Tlast is recorded as 24.0 h in series [2] (setting [5]), 8.00 h in series [2] (group Semaglutide-5 ug/kg) and 24.0 h in series [2] (group Semaglutide-40 ug/kg). The MRT inf in series [2] (setting [5]) was found to be 16.6 h; in series [2] (group Semaglutide-40 ug/kg) it was 15.2 h. For the same molecule, the results for the MRT last in series [2] (setting [5]), in series [2] (group Semaglutide-5 ug/kg) and in series [2] (group Semaglutide-40 ug/kg) were 9.76 h, 4.38 h and 10 h, respectively.
In the case of tirzepatide, in series [3], the “Body weight” value is listed as 40.2 ± 1.3 g, the “Fat” value is reported as 12.7 ± 1.4 g and the “Lean mass” value came to 25.4 ± 0.4 g.

B1: Bimagrumab: ActRII receptor antibody, sequences SEQ ID NO: 1-10 (antibody, chains of the INN, looked up, V domains shown)
VH: QVQLVQSGAEVKKPGASVKVSCKASGYTFTSSYINWVRQAPGQGLEWMGTINPVSGSTSYAQKFQGRVTMTRDTSISTAYMELSRLRSDDTAVYYCARGGWFDYWGQGTLVTVSS
VL: QSALTQPASVSGSPGQSITISCTGTSSDVGSYNYVNWYQQHPGKAPKLMIYGVSKRPSGVSNRFSGSKSGNTASLTISGLQAEDEADYYCGTFAGGSYYGVFGGGTKLTVL
With B1, the “increase in muscle mass” value in series [4] is recorded as 4-8%.
